Where a name gives a salt, the structure may show the parent alone.
Tests used:
Creatinine Sensor = assay: Screen of biocides/antibiotics for compatibility with the Creatinine Sensor (Creatinine Sensor Slope loss); format: biochemical; set-up: key: “Fail” indicates the compound inhibited Creatinine Sensor Slope; “Pass” indicates there was no significant effect on Creatinine Sensor Slope
Excerpt: In one embodiment, a biocide candidate may be injected into, for example, one PCS-B bag after about one week of cartridge use life, and then any changes in sensor slopes over the next week or two, especially any increase in the rate of slope decrease, may be observed. During this time, aqueous solutions with high substrate concentrations may be tested to ensure that enzymes are still able to convert all substrate to products in the allotted time (e.g., about one minute).
In one embodiment, multiple cartridges assembled with, for example, PCS-B bags containing a candidate biocide may be tested for a prolonged period of time (e.g., 20-30 days) that corresponds to the useful cartridge lifespan (which may vary depending upon the cartridge type tested). In this case the cartridge starts the hydration process, which generally lasts about 50 minutes, with the biocide already in the solution bag (e.g., PCS-B). […] Over the course of 3 weeks, in addition to running aqueous controls that have established acceptance ranges, whole human blood may also be tested in order to simulate normal customer use.
A variety of candidate molecules were screened as described above to determine whether they were compatible with the Creatinine Sensor, i.e. whether there was a significant effect on Creatinine Sensor Slope.

[1] = tested on: ChemSTAT creatinine sensor (creatininase, creatinase and sarcosine oxidase); assay: Creatinine and creatine sensor slopes over time with biocide in Process Control Solution (PCS); format: biochemical; conditions: for Creatinine and creatine slopes over time after addition to PCS: 20 mg/L added to PCS-B after stable slopes for more than one week
Procedure: FIGS. 2A-2B show plots of creatinine and creatine slopes over time in the presence of either MIT or polymyxin B, respectively. […] Stable slopes were first established for more than one week before 300 mg/L MIT (methyl isothiazolinone) or 20 mg/L polymyxin B was added to the Process Control Solution (PCS) B (e.g., PCS-B).
The present disclosure discovered that Polymyxin B and Polymyxin E (aka, Colistin Sulfate) were compatible with a ChemSTAT creatinine sensor that utilized two hydrolase class enzymes (e.g., creatininase and creatinase) and sarcosine oxidase to measure creatinine. When included in Process Control Solutions (PCS) at a concentration sufficient to kill microbes (e.g., bacteria, in particular gram negative rods including various strains of Pseudomonas), the slope of the sensor remained high enough over 21 days to continually allow accurate measurement of creatinine in human blood and aqueous control solutions even at the upper end of the linear range where reduced enzyme activity could result in low recovery of substrate.
MIT is the most common biocide used in the blood gas industry for microbial contamination, and is known to be compatible with oxidase class enzymes such as glucose oxidase and lactate oxidase.
Importantly, the creatinine slope performed equivalently with colistin in PCS bags (see FIG. 3, left) to cartridges with PCS bags protected only with gentamicin (see FIG. 3, right). In this plot, no bacterial contamination was observed on control or test biocide PCS bags nor was there any evidence of enzyme inhibition and therefore performance is similar.

Row | Molecule | Pass/Fail (Creatinine Sensor Slope Loss) (Creatinine Sensor) | Inhibition/inactivation of creatininase, creatinase and sarcosine oxidase [1] | other results
1 | Oc1ccccc1-c1ccccc1 [2-phenyl phenol] | Fail | – | –
2 | Oc1cccc2cccnc12 [8-hydroxyquinoline] | Fail | – | –
3 | NCC[C@H](O)C(=O)N[C@@H]1C[C@H](N)[C@@H](O[C@H]2O[C@H](CN)[C@@H](O)[C@H](O)[C@H]2O)[C@H](O)[C@H]1O[C@H]1O[C@H](CO)[C@@H](O)[C@H](N)[C@H]1O [Amikacin sulfate] | Pass | – | –
4 | O=c1[nH]sc2ccccc12 [BIT, benisothiazolinone] | Fail | irreversibly inhibited | –
5 | CC1(C)S[C@@H]2[C@H](NC(=O)C(C(=O)O)c3ccccc3)C(=O)N2C1C(=O)O (some centres unmarked) [Carbenicillin disodium] | Pass | – | –
6 | CC(C)(O/N=C(\C(=O)N[C@@H]1C(=O)N2C(C(=O)[O-])=C(C[n+]3ccccc3)CS[C@H]12)c1csc(N)n1)C(=O)O [Ceftazidime] | Pass | – | –
7 | Cn1sc(Cl)cc1=O [Cl-MIT, chlorinatedmethyl- isonthiazolinone] | Fail | irreversibly inhibited | –
8 | CC1(C)NC(=O)NC1=O [Dantogard Plus, dimethylhydantoin] | Fail | irreversibly inhibited | –
9 | CNC1C(O)[C@@H](O[C@H]2C(N)C[C@H](N)C(O[C@H]3OC(C(C)N)CCC3N)C2O)OC[C@]1(C)O (some centres unmarked) [Gentamicin sulfate] | Pass | – | Creatinine slope performance over time in PCS ([1]; full use life of three weeks): maintained sufficient creatinine slope
10 | C[C@H]1COc2c(N3CCN(C)CC3)c(F)cc3c(=O)c(C(=O)O)cn1c23 [Levofloxacin] | Pass | – | –
11 | Cn1sc2ccccc2c1=O [MBIT, methylbenzisothiazolinone] | Fail | irreversibly inhibited | –
12 | CCn1cc(C(=O)O)c(=O)c2cc(F)c(N3CCNCC3)cc21 [Norfloxacin] | Fail | irreversibly inhibited | –
13 | CCCCNC(=O)OCC#CI [Omacide IPBC, iodopropynylbutylcarbamate] | Fail | irreversibly inhibited | –
14 | CCN1CCN(C(=O)N[C@@H](C(=O)N[C@@H]2C(=O)N3C(C(=O)O)C(C)(C)S[C@H]23)c2ccccc2)C(=O)C1=O (some centres unmarked) [Piperacillin] | Pass | – | –
15 | CN[C@@H]1[C@H](O)[C@H](NC)[C@H]2O[C@@]3(O)C(=O)C[C@@H](C)O[C@H]3O[C@@H]2[C@H]1O [Spectinomycin] | Pass | – | –
16 | COc1cc(Cc2cnc(N)nc2N)cc(OC)c1OC [Trimethoprim] | Fail | irreversibly inhibited | –
17 | Polymyxin B | Pass | – | Creatinine and creatine slopes over time after addition to PCS [1]: no effect; Creatinine and creatine slopes over time after addition to PCS ([1]; listed as polymyxin B): does not causes a rapid decay; Compatibility with ChemSTAT creatinine sensor ([1]; in PCS at a concentration sufficient to kill microbes, slope over 21 days): compatible
18 | Streptomycin | Pass | – | –

From patent US12516365B2, “Biocide compositions compatible with enzyme biosensors and methods of use thereof” (priority 2019, dated 2026)
